From patent publication US6586596B2, “Acetylcholine enhancers” (priority 1998, dated 2003)

Columns and labels:
[1] = target: T1, peripheral 5-HT3 receptor (Rattus norvegicus, UniProt P35563); assay: 5-HT-evoked von Bezold-Jarish Effect (B.J.E.) in anesthetized rats; format: in vivo; details: Cm.A 3 to 10 mg/kg; for inhibition of 5-HT-evoked B.J.E. (reflex bradycardia): i.v. pretreatment, E2020 0.1~1 mg/kg, 5-HT 20 μg/kg i.v.; for blood pressure, heart rate and other signs: i.v., THA 10 mg/kg, E2020 higher than 1 mg/kg, data not shown
T1 construct: from tissue; host or cells: whole anesthetized rat (peripheral receptors)
T1 sequence (P35563 24-483): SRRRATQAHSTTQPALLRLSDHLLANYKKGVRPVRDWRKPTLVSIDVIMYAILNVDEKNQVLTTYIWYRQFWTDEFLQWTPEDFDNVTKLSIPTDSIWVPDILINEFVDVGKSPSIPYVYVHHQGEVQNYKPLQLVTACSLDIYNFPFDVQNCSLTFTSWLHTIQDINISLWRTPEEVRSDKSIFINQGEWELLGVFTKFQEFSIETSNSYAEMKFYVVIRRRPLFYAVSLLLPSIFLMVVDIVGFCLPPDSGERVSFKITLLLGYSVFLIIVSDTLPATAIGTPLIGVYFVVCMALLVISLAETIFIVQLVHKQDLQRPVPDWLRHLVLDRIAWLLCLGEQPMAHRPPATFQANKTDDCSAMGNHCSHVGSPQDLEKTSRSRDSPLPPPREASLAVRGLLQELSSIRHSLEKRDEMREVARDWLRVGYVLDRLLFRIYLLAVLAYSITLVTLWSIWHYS
Experimental: A bolus i.v. injection of serotonin (5-HT) (20 μg/kg) caused reflex bradycardia transiently (von Bezold—Jarish Effect: B.J.E.) via activation of peripheral 5-HT3 receptor in anesthetized rats.

BF-lesioned rats = assay: Water maze, BF lesion-induced deficit in spatial learning; details: oral; Cm.A 0.3, 1.0 and 3.0 mg/kg/day, THA 1.0 mg/kg/day, E2020 0.3 and 1.0 mg/kg/day
Experimental: For each training trial, the rat was placed in the water (22° C.) such that the animal faced the wall of a circular pool (150 cm in diameter, 45 cm in height), and started at one of five starting points (selected randornly). In each trial, the latency period to escape onto the hidden platform (fixed in the middle of one quadrant, 2 cm below the surface of water) was recorded. These procedures were repeated once or twice a day during the experimental period.

5-HT3 receptor = target: T2, 5-HT3 receptor (Mus musculus, UniProt P23979); assay: serotonin 5-HT3 binding assay (NovaScreen), NIE-115 cells; details: 20 mM HEPES pH 7.4, 150 mM NaCl, 25° C., 60 minutes
T2 construct: The receptor source was NIE-115 cells; host or cells: NIE-115 cells
T2 sequence (P23979 24-489): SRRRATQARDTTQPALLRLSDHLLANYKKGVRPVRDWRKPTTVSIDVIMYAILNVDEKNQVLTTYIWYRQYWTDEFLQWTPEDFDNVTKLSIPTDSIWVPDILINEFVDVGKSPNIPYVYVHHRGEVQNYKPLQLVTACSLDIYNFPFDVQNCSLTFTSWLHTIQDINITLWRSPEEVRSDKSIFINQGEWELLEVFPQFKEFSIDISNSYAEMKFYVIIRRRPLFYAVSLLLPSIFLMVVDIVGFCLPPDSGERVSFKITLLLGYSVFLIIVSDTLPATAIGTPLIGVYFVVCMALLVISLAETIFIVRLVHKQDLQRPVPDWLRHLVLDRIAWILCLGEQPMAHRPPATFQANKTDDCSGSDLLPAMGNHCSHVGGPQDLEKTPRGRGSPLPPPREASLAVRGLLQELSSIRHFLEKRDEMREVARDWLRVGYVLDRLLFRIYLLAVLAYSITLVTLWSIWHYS
Experimental: Binding affinity of a variety of compounds, including Cm.A, for the 5-HT3 receptor was investigated using a commercially available serotonin 5-HT3 binding assay (NovaScreen, Hanover, Md.). The receptor source was NIE-115 cells (See Lunnis, S. C. R. and Kilparick, G. J., 189: Evr. Jrnl. Pharmacol. 223 (1990); and Hoyer, D. and Heijt, H. C., 33 Mol. Pharmacol., 303 (1988)). The reference compound utilized was “MDL 72222,” a 5-HT3 receptor antagonist. Reactions were carried out in 20 mM HEPES (pH 7.4) containing 150 mM NaCl at 25° C. for 60 minutes. The reaction was terminated by rapid vacuum filtration onto glass fiber filters. Radioactivity trapped onto the filters was determined and compared with the control values.

[2] = tested on: extracellular levels of ACh in striatum; assay: ACh release in striatum, microdialysis in freely moving rats; format: in vivo
Experimental: ACh content in perfusate obtained from striatum (Bregma, A: 0.2 mm, L: 3.0 mm, H: 4.0 mm) of brain were continuously detected by means of HPLC and ECD through the microdialysis system using freely moving rats. See Messamore, E., et al, 32 Neuropharmacol. […] After an equilibration period of more than 2 hours, five fractions were allowed to obtain basal ACh content. Compounds were injected i.p., and thereafter, a microdialytic analysis was conducted for 3 hours.

[3] = tested on: extracellular levels of ACh in hippocampus; assay: ACh release in hippocampus, microdialysis in freely moving rats; format: in vivo
Experimental: ACh content in perfusate obtained from hippocampus (Bregma, A: −5.8 mm, L: 5.0 mm, H: 4.0 mm) of brain were continuously detected by means of HPLC and ECD through the microdialysis system using freely moving rats (See Messamore and Kawashima, supra). After an equilibration period, five fractions were allowed to obtain basal ACh content. Test substances were injected i.p., and thereafter, microdialytic analysis was conducted for 3 hr.

Cynomologous monkeys [4] = assay: Hepatotoxic analysis, four-week oral study; format: in vivo
Experimental: During the testing period, these animals were dosed with three different regimens: first, animals were dosed with 10 mg/kg/day for 7 days, followed by 32 days-washout period, second, animals were dosed with 5 mg/kg/day for 14 days, and thereafter the animals were dosed with 10 mg/kg/day for 7 days. The following parameters were examined: body weight, clinical signs, food consumption, blood biochemistry (GOT, GPT, ALP, LDH, γ-GTP, ChE, Bil, T.Pro, Alb, A/G ratio, T.Cho, NEFA, TG).

Cynomologous monkeys [5] = assay: Hepatotoxic analysis, two-week oral study; format: in vivo; details: monkey, in vivo, po, 5 mg/kg/day
Excerpt: The following parameters were examined: body weight, clinical signs, food consumption, blood biochemistry (GOT, GPT, ALP, LDH, γ-GTP, ChE, Bil, T.Pro, Alb, A/G ratio, T.Cho, NEFA, TG). After the administration period, the animals were sacrificed and autopsied. Organs and tissues were weighed, then examined histopathologically.

[6] = tested on: scopolamine-induced spatial learning deficit; assay: Water maze, scopolamine-induced deficit in spatial learning; format: in vivo, rats; details: p.o. 60 minutes before each trial; Cm.A 1.0 mg/kg/day; scopolamine 0.5 mg/kg i.p.
Experimental: A total of 6 trials (2 trials on 1st day, and 1 trial after 2nd day) were conducted to observe the effects of the test compounds. Scopolamine (0.5 mg/kg, i.p.) and the test compounds (p.o.) were administered 30 and 60 minutes before each trial, respectively.

SMILES | inhibition of 5-HT-evoked B.J.E. (reflex bradycardia) [1] | blood pressure, heart rate and other signs [1] | deficit of spatial learning (escape latency) (BF-lesioned rats) | IC50 (5-HT3 receptor; read-out: IC50) [nM] | Ki (5-HT3 receptor; read-out: Ki) [nM] | centrally acting cholinergic symptoms (tremor, chewing and yawning) ([2]; rat, in vivo, ip) | increase of ACh content compared with Cm.A ([2]; striatum, young rats, i.p.) | increase of ACh content compared with Cm.A ([3]; hippocampus, i.p.) | centrally acting cholinergic symptoms (tremor, chewing and yawning) ([3]; rat, in vivo, ip) | Blood biochemistry (Cynomologous monkeys [4]; F, oral, four weeks) | Clinical signs softstool (Cynomologous monkeys [4]; monkey, in vivo, po) | clinical signs (Cynomologous monkeys [4]; monkey, in vivo, po) | food consumption and body weight (Cynomologous monkeys [4]; monkey, in vivo, po) | blood biochemical tests (Cynomologous monkeys [4]; oral, four weeks) | Clinical signs softstool (Cynomologous monkeys [5]) | Clinical signs vomiting (Cynomologous monkeys [5]) | Food consumption (Cynomologous monkeys [5]) | deficit in spatial learning (escape latency) [6]
COc1cc2c(cc1OC)C(=O)C(CC1CCN(Cc3ccccc3)CC1)C2 (stereo not drawn) [E2020, donepezil] | no inhibitory effect on B.J.E. | caused hypertension, salivation and tremor | also improved this type of deficit |  |  |  |  |  |  |  |  |  |  |  |  |  |  | 
CN1[C@@H]2CC[C@H]1C[C@@H](OC(=O)c1cc(Cl)cc(Cl)c1)C2 [MDL 72222] |  |  |  | 8.99 | 4.14 |  |  |  |  |  |  |  |  |  |  |  |  | 
Nc1c2c(nc3ccccc13)CCCC2 [THA, 1,2,3,4-tetrahydro-9-acridinamine, reference compound] | slight tendency to decrease the reflex | caused severe hypertension, salivation and tremor | also improved this type of deficit |  |  | greater severity as compared with Cm.A | increased the ACh content more potently and long-lastingly than Cm.A | somewhat weak | more apparent as compared with Cm.A | ↓: CHE | +++ | severe vomiting and soft stools or diarrhea | decrease in body weight and food consumption | increase in TG and NEFA, decrease in ChE and T.Cho | − | + | − | no significant effect
